According to PubChem BioAssay (NCI):
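Five concentrations, 48 hours, 96-well plates. TGI: total growth inhibition.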 Where a SMILES comes first, the peptide text is derived from it. Bridges are numbered along the chain shown (N, C = ends). The star is where a group is joined. Cbz = O=C(OCc1ccccc1)*

Experiments:
Assay in all cases: growth of human tumour cells (NCI), 48 h
[1] = tested on: MOLT-4 leukemia
[2] = tested on: MCF7 breast
[3] = tested on: HS 578T breast
[4] = tested on: RXF 393 renal
[5] = tested on: UACC-257 melanoma
[6] = tested on: PC-3 prostate
[7] = tested on: OVCAR-8 ovarian
[8] = tested on: SK-MEL-28 melanoma
[9] = tested on: RPMI-8226 leukemia
[10] = tested on: SNB-19 CNS
[11] = tested on: SNB-75 CNS
[12] = tested on: HCT-15 colon
[13] = tested on: T-47D breast
[14] = tested on: HCT-116 colon
[15] = tested on: HT29 colon
[16] = tested on: MDA-MB-231 breast
[17] = tested on: OVCAR-5 ovarian
[18] = tested on: CAKI-1 renal
[19] = tested on: SN12C renal
[20] = tested on: SK-OV-3 ovarian

Measured: TGI

Cc1nc2ccc(F)cc2c2c1CCS2
86.9 µM: [16]
73.9 µM: [4]
not listed: [17] | [18] | [19] | [20]
> 100 µM: all other assays above

COc1ccc2c(O)c(Oc3ccc(Cl)cc3)c(=O)oc2c1
not listed: [20]
> 100 µM: all other assays above

CC1=C(O)C(=O)C=C2C1=CC=C1[C@@]2(C)CC[C@@]2(C)C3C[C@@H](C)C(=O)[C@@H](O)[C@]3(C)CC[C@]12C (some centres undefined)
4.17 µM: [8]
11 µM: [2]
17.3 µM: [11]
3.44 µM: [13]
> 84.8 µM: [3]
7.46 µM: [5]
3.21 µM: [1] | [14]
22.2 µM: [20]
4.89 µM: [19]
5.47 µM: [7]
3.79 µM: [15]
9.29 µM: [17]
4.23 µM: [6]
3.75 µM: [16]
3.49 µM: [4]
9.23 µM: [10]
2.83 µM: [18]
5.08 µM: [9]
3.73 µM: [12]

CCCCNC(=O)OCCN=c1c2ccccc2ccc2ccccc12
> 100 µM: all assays above

O=C(O)c1ccccc1CN1CCCC(C(=O)O)C1 (centres undefined)
> 100 µM: all assays above

CNC(=O)C1CCCCNC(=O)CCC(NC(=O)OCc2ccccc2)C(=O)N1 (stereo not drawn) (Cbz-Glu-Lys-NHMe; lactam 1-2; configuration not given here)
> 100 µM: all assays above

CC(C)(C)C(=O)/C=C(\OB(F)F)C(C)(C)C
> 100 µM: all assays above

C=CCN1C(=O)CC2[C@@H]3CCc4cc(O)ccc4C3CC[C@]2(C)C1=O (some centres undefined)
not listed: [11]
> 10 µM: all other assays above

Fc1ccc(Nc2nc(Cl)c3[nH]cnc3n2)cc1Cl
not listed: [4]
> 100 µM: all other assays above

CCCCCCCCCCCCCCCCOCC(COP(=O)(O)OCC1OC(n2cc(CC)c(=O)[nH]c2=O)CC1O)OC(=O)CCCCCCCCCCCCCCC (centres undefined)
> 100 µM: all assays above

O=C1Cc2c(-c3cccs3)cc(-c3ccccc3)nc2-c2ccccc2N1
41.9 µM: [11]
43.9 µM: [15]
17.1 µM: [7]
17.2 µM: [3]
> 100 µM: all other assays above

COC(=NC(C)C)NC(C)C
not listed: [4] | [5] | [15] | [18]
> 100 µM: all other assays above
